Source: patent US20060135608A1, “Eicosapentaenoic acid (epa) for treating anorexia nervosa (an) and bulimia” (priority 2002, published 2006)

Legend:
patient with AN = assay: Example 1: case of a patient with AN treated with 1 g/d ethyl-EPA; type: in vivo, human
Description: A patient presented with a 14-month history of dieting and eating difficulties. These had started with dietary restrictions and excessive exercise and proceeded to laxative abuse. Two months prior to being first seen they had stopped taking all solid food. When first seen their weight was still within the normal range for their height at 55 kg for 1.63 m. However, they had lost 8 kg since stopped solid food, had stopped menstruation and begun to grow the fine, downy “lanugo” hair over their body which is common in AN.
They were treated with a standard AN regime of family therapy, psychotherapy and dietary advice. This was ineffective and over the next two months they lost around 10 kg which necessitated their admission to hospital. At this point they were extremely distressed and unable or unwilling to maintain a conversation. Despite their emaciation they were still preoccupied with being fat and wanted to lose more weight. Their heart rate was very slow and their blood glucose was low, signs of starvation. They were treated as an emergency with compulsory naso-gastric feeding with parental consent. After two weeks of this therapy they had gained a little over 2 kg and begun to eat small amounts by mouth. At the end of this time their family removed them from hospital against medical advice.
Over the following ten days they lost a further 5 kg in weight to 42 kg. Their doctors believed that their life was in danger and so obtained an order for compulsory admission to hospital. At the start of this admission they were treated with 1 g/d of ethyl-eicosapentaenoate (E-EPA). This transformed their response to treatment. […] Their mood and cognitive functions improved and they became normally communicative. Instead of being obsessed by weight and food to the exclusion of everything else, they became interested in all aspects of their life and their future. […] After 12 weeks they were discharged from hospital and their body weight stabilised around a normal 62-65 kg. They took a summer job which they enjoyed and completed successfully and enrolled in a college course.

[1] = test system: patients with anorexia nervosa; assay: Example 2: seven patients with anorexia nervosa or related disorders treated with 1 g/day E-EPA; type: in vivo, human
Description: Seven patients underwent treatment of their disorders using EPA. FIGS. 1-5 summarise the results of this study. Participants were given 1 g/day ethyl-EPA (E-EPA) for an initial 3 month period. The E-EPA provided by Laxdale Limited was over 95% pure EPA. If the patient and family wished to continue beyond 3 months, the dose was continued, and in some cases increased beyond 1 g/day. All patients were offered the standard treatment available at the local district health services, including full psychiatric and physical assessment, regular monitoring of physical parameters. Parameters monitored on a monthly basis included the patient's weight and height. BMI, and average body weight and height (ABW) were calculated using Weight 4 Height software (based on 1990 British reference data by the Child Growth Foundation). The following standard psychometric measures were used: EDI-2, BDI-2, CGAS, CGI-S, Morgan-Russell, and patient Likert Scales (including problems, general and improvement).

[2] = 3 months after discharge, scored 0 to 12
[3] = Patient 2, 1-year follow-up, dosage increased to 2 g/day in later stages
[4] = Patient 5, after three months, 1 g/day
[5] = Patient 6, end of three months, 1 g/day

In the case of `CC/C=C\C/C=C\C/C=C\C/C=C\C/C=C\CCCC(=O)OCC` [E-EPA, ethyl-eicosapentaenoate], the body image perceptions (patient with AN; 1 g/d, over 12 weeks) was “lost their distorted body image perceptions”, the “mood and cognitive functions” value (patient with AN; 1 g/d, over 12 weeks) was “improved” and the eating (patient with AN; 1 g/d, over the following weeks) was “began to eat normally”. For the same compound, the Wt kg (patient with AN; 2nd hospital discharge on EPA (12 weeks, 1 g/d), 42 at 2nd hospital admission) was 57 kg, the “MR-O (Morgan-Russell overall scale)” value (patient with AN; 2nd hospital discharge on EPA, scored 0 to 12, 12 completely normal, 1.2 at 2nd admission) was 12.0 and the “MR-A (food intake)” value (patient with AN; 2nd hospital discharge on EPA, scored 0 to 12, 0.0 at 2nd admission) was 12.0. For the same compound, the “MR-E (overall social-economic-health state)” value (patient with AN; 2nd hospital discharge on EPA, scored 0 to 12, 1.0 at 2nd admission) was 9.0, the “MR-C (mental state)” value (patient with AN; 2nd hospital discharge on EPA, scored 0 to 12, 4.0 at 2nd admission) was 8.0 and the Wt kg (patient with AN; 3 months after discharge) was 63 kg. The “MR-A (food intake)” value (patient with AN; [2]) was 12.0, the “MR-C (mental state)” value (patient with AN; [2]) was 12.0 and the “MR-E (overall social-economic-health state)” value (patient with AN; [2]) was 11.0. For the same compound, the “MR-O (Morgan-Russell overall scale)” value (patient with AN; [2]) was 12.0, the body weight stabilised (patient with AN; after discharge from hospital at 12 weeks) was 62 to 65 kg and the body weight (patient with AN; within 12 weeks of 1 g/d, 42 kg at start) was 57 kg. The ABW [1, 3] was 88.3%, the BMI [1, 3] was 17.74 and the clinical response ([1]; Patient 2, after restart of E-EPA and zinc treatment) was “significant improvement”. For the same compound, the “lowest ABW” value ([1]; Patient 2, after stopping E-EPA at 6 months) was 73%, the clinical response ([1]; Patient 2, by three months, 1 g/day) was “partially improved” and the ABW ([1]; Patient 2, three months, 1 g/day, 84.4% after NG feeding) was 86.34%. For the same compound, the growth in height ([1]; Patient 3, in three months, 1 g/day) was 3 cm, the mental state ([1]; Patient 3, three months, 1 g/day) was “significantly improved” and the BMI ([1]; Patient 3, three months, 1 g/day, 13.3 at referral) was 15.5. For the same compound, the ABW ([1]; Patient 3, three months, 1 g/day, 74.4% at referral) was 81%, the psychometric measures ([1]; Patient 4, 1 g/day) was “marked improvement” and the “weight stabilised, ABW” value ([1]; Patient 4, 1 g/day for a total of 6 months, 83.9% at discharge from paediatric hospital) was “around 85.5%”. The mood ([1]; Patient 4, after two months, 1 g/day) was “dramatic improvement”, the ABW ([1]; Patient 4, within three months after they stopped taking the E-EPA) was 80% and the panic attacks ([1]; Patient 5, E-EPA increased to 4 g/day) was “helped with their panic attacks”. For the same compound, the anxiety [1, 4] was “did not improve”, the “weight, eating habits and mood” value [1, 4] was “dramatic improvement” and the BMI ([1]; Patient 5, after three months, 1 g/day, 17.15 before) was 20. The ABW ([1]; Patient 5, after three months, 1 g/day, 77% before) was 90%, the anorexic symptoms [1, 5] was “complete resolution” and the growth in height [1, 5] was 3 cm. The BMI ([1]; Patient 6, end of three months, 1 g/day, 17.57 at first presentation) was 19.1, the ABW ([1]; Patient 6, end of three months, 1 g/day, 87% at first presentation) was 93.6% and the clinical response ([1]; Patient 6, within the first 4-6 weeks, 1 g/day) was “improved dramatically”. The growth in height ([1]; Patient 7, during three months treatment) was 1.5 cm, the BMI ([1]; Patient 7, end of three months treatment, 1 g/day, 14.8 before) was 16.21 and the ABW ([1]; Patient 7, end of three months treatment, 1 d/day, 78.21 before) was 84.5%. The “clinical response (appetite, mood, self-esteem, psychometric measures)” value ([1]; Patient No 1, after 2 months of treatment) was “remarkable improvement”, the BMI ([1]; Patient No 1, after three months of 1 g E-EPA, 16.9 at hospital admission) was 22.8 and the ABW ([1]; Patient No 1, after three months of 1 g E-EPA, 83.6% at hospital admission) was 111%. For the same compound, the relapse of anorexia ([1]; Patient No 1, one-year follow-up, E-EPA stopped after three months) was “no return of their anorexia”, the “cases with complete recovery” value ([1]; of the seven patients) was “three” and the “cases with partial improvement” value ([1]; of the seven patients) was “four”. The growth response ([1]; patients who had growth delay, during the time of the E-EPA treatment) was “significant growth” and the “deterioration whilst taking the E-EPA” value ([1]; seven patients) was “no patient deteriorated”.
